As a reminder, the AC50 is the concentration giving half of the maximal activity seen.

SMILES strings stand for the structures. Records with an inconclusive call do not appear. Active and inactive are the calls of the source. No rule for the calls is given here.

One test deals with LMP1-induced NF-kappaB luciferase reporter cells, luminescence. In words: LMP1-driven NF-kB reporter inhibition, dose response, cell-based, luciferase reporter, luminescence, dry powder, set 2 (AID 624376).
Settings: not given
For orientation: A reporter such as luciferase makes a cellular process visible.
As for `CC(C)(C)[S@](=O)N1Cc2cc(C(=O)NCC(F)(F)F)nc(-c3cccc(-c4cccc(F)c4)c3)c2[C@@H]1CCO`, the AC50 was 11.9 µM.
Same read-out and setting: to `COc1ccccc1C#Cc1ccc2c(c1)O[C@H](CN(C)Cc1cccnc1)[C@H](C)CN([C@H](C)CO)S2(=O)=O` belongs 22.9 µM; to `COc1cccc(C#Cc2ccc([C@@H]3[C@@H](C#N)N(C(=O)c4ccccn4)[C@@H]3CO)cc2)c1`, 19.2 µM.
For the molecule `CN(C)c1ccc2c(c1)[C@@H]1C[C@H](CC(=O)NCc3ccc(Oc4ccccc4)cc3)O[C@@H](CO)[C@@H]1O2`, the AC50 was 9.81 µM.
As to `CN1C(=O)c2cc(NC(=O)c3ccc(C(F)(F)F)cc3)ccc2OC[C@@H]2O[C@@H](CC(=O)NC3Cc4ccccc4C3)CC[C@H]21`, the AC50 is 24.5 µM.
For `O=C(Nc1ccc(C(F)(F)F)cc1)Nc1ccc2c(c1)[C@@H]1C[C@H](CC(=O)N3CCc4ccccc4C3)O[C@@H](CO)[C@@H]1O2`, the AC50 is 15.1 µM.
For the molecule `Cc1ccc(S(=O)(=O)N(C)C[C@H]2Oc3cc(C#Cc4ccncc4)ccc3S(=O)(=O)N([C@@H](C)CO)C[C@@H]2C)cc1`, the concentration at half-maximal activity (AC50) was 21.2 µM.
`Cc1ccc(S(=O)(=O)N(C)C[C@H]2Oc3cc(C#Cc4ccncc4)ccc3S(=O)(=O)N([C@@H](C)CO)C[C@H]2C)cc1`: the AC50 is 21.4 µM.
On to `Cc1cc(C(=O)Nc2ccc3c(c2)C(=O)N(C)[C@@H]2CC[C@H](CC(=O)NCc4ccc(-c5ccccc5)cc4)O[C@@H]2CO3)no1`, for which the AC50 is 9.74 µM.
Take `C[C@@H]1CN([C@H](C)CO)S(=O)(=O)c2ccc(/C=C/c3ccccc3)cc2O[C@H]1CN(C)C(=O)NC1CCCCC1`: the AC50 was 25.3 µM.
On to `COc1ccccc1C#Cc1cnc2c(c1)C(=O)N([C@@H](C)CO)C[C@H](C)[C@@H](CN(C)C(=O)c1ccc3c(c1)OCO3)O2`, for which the AC50 was 25.9 µM.
As for `O=C(C[C@@H]1CC[C@@H]2[C@H](COC[C@@H](O)CN2Cc2ccc3c(c2)OCO3)O1)Nc1ccc(-c2ccccc2)cc1`, the AC50 was 10.2 µM.
As for `O=C(Nc1ccc(C(F)(F)F)cc1)Nc1ccc2c(c1)[C@H]1C[C@H](CC(=O)N3CCc4ccccc4C3)O[C@H](CO)[C@H]1O2`, the AC50 is 24.2 µM.
Regarding `CN1C(=O)c2cc(NC(=O)Cc3cccs3)ccc2OC[C@@H]2O[C@H](CC(=O)NCc3ccc(-c4ccccc4)cc3)CC[C@H]21`, the AC50 was 33 µM.
For `O=C(C[C@@H]1C[C@H]2c3cc(NS(=O)(=O)c4ccc(F)cc4)ccc3O[C@H]2[C@@H](CO)O1)NCc1ccc(Oc2ccccc2)cc1`, the concentration at half-maximal activity (AC50) is 15.3 µM.
With `O=C(C[C@H]1C[C@@H]2c3cc(NC(=O)c4ccc5c(c4)OCO5)ccc3O[C@@H]2[C@@H](CO)O1)NCc1ccc(Oc2ccccc2)cc1`, the AC50 is 24.5 µM.
For the molecule `Cc1cc(C(=O)Nc2ccc3c(c2)C(=O)N(C)[C@H]2CC[C@H](CC(=O)NCc4ccc(-c5ccccc5)cc4)O[C@H]2CO3)no1`, the AC50 is 14.7 µM.
The same measure, in the same setting: the value for `O=C(C[C@@H]1CC[C@@H]2[C@H](COC[C@@H](O)CN2Cc2ccc(Oc3ccccc3)cc2)O1)N1CCc2ccccc2C1` was 16.4 µM; that for `CC(C)c1ccc(NC(=O)C[C@H]2CC[C@H]3[C@@H](COc4ccc(NC(=O)Nc5ccc(F)c(F)c5)cc4C(=O)N3C)O2)cc1` was 22.2 µM; that for `N#C[C@@H]1[C@H](c2ccc(C#Cc3ccccc3F)cc2)[C@@H](CO)N1C(=O)c1cccnc1` was 1.02 µM.

Tested on in another test: not listed separately
Described as above. The conditions noted are these: LMP1-induced NF-kappaB luciferase reporter cells, luminescence; at 35 µM (top of the series).
On to `O=C(C[C@H]1C[C@@H]2c3cc(NS(=O)(=O)c4ccc(F)cc4)ccc3O[C@@H]2[C@H](CO)O1)NC1CCCCC1`, for which the activity change, negative = inhibition is -0.993% (inactive).
As for `C[C@@H](NC(=O)C[C@@H]1C=C[C@H](NC(=O)Cc2ccccn2)[C@@H](CO)O1)c1ccccc1`, the activity change, negative = inhibition is -7.31% (inactive).
Same read-out and setting: to `O=C(Cc1ccccn1)NCC[C@@H]1CC[C@H](NC(=O)Nc2ccc(Cl)cc2)[C@H](CO)O1` belongs -9.97% (inactive).
Regarding `COC(=O)C[C@H]1C[C@H]2c3cc(NC(=O)CN(C)C)ccc3O[C@H]2[C@H](CO)O1`, the activity change, negative = inhibition was -9.49% (inactive).
`O=C(Cc1ccccn1)NCC[C@H]1CC[C@@H](NC(=O)Nc2ccc(Cl)cc2)[C@@H](CO)O1`: the activity change, negative = inhibition was 0.728% (inactive).
For `C[C@H](CO)N1C[C@H](C)[C@H](CN(C)Cc2ccc(C(F)(F)F)cc2)Oc2ccc(NC(=O)Cc3ccccc3)cc2CC1=O`, the activity change, negative = inhibition was 3.81% (inactive).
As to `C[C@@H](NC(=O)C[C@@H]1C=C[C@@H](NC(=O)Cc2ccccn2)[C@H](CO)O1)c1ccccc1`, the activity change, negative = inhibition is -0.374% (inactive).
With `COc1cccc(S(=O)(=O)N(C)C[C@H]2Oc3cc(C4=CCCCC4)ccc3S(=O)(=O)N([C@H](C)CO)C[C@H]2C)c1`, the activity change, negative = inhibition was -4.73% (inactive).
For the molecule `C[C@@H](NC(=O)C[C@H]1C=C[C@H](NC(=O)Cc2ccccn2)[C@@H](CO)O1)c1ccccc1`, the activity change, negative = inhibition was 2.05% (inactive).
`O=C(Cc1ccccn1)NCC[C@H]1CC[C@@H](NC(=O)Nc2ccc(Cl)cc2)[C@H](CO)O1`: the activity change, negative = inhibition was -2.95% (inactive).
Still for that read-out and setting: the value for `COc1ccccc1C(=O)Nc1ccc2c(c1)C(=O)N(C)[C@@H]1CC[C@H](CC(=O)NCCc3ccncc3)O[C@H]1CO2` was -9.84% (inactive).
Turning to `C[C@@H](NC(=O)C[C@@H]1C=C[C@H](NC(=O)Cc2ccccn2)[C@H](CO)O1)c1ccccc1`, the activity change, negative = inhibition was 1.6% (inactive).
On the same count and under the same terms, to `C[C@H](NC(=O)C[C@H]1C=C[C@@H](NC(=O)Cc2ccccn2)[C@H](CO)O1)c1ccccc1` belongs 0.463% (inactive); to `Cc1noc(C)c1S(=O)(=O)Nc1ccc2c(c1)C(=O)N([C@H](C)CO)C[C@H](C)[C@H](CN(C)Cc1ccc(C(F)(F)F)cc1)OCCCC[C@@H](C)O2`, 16.1% (inactive).
As for `CN(C)c1ccc2c(c1)[C@@H]1C[C@@H](CC(=O)NCc3ccc(Oc4ccccc4)cc3)O[C@@H](CO)[C@@H]1O2`, the activity change, negative = inhibition is -26.2% (inactive).
On to `O=C(C[C@@H]1C[C@@H]2c3cc(NC(=O)c4cccnc4)ccc3O[C@@H]2[C@H](CO)O1)NCC(F)(F)F`, for which the activity change, negative = inhibition was -8.21% (inactive).
As for `CS(=O)(=O)Nc1ccc2c(c1)[C@H]1C[C@@H](CC(=O)NCC3CC3)O[C@@H](CO)[C@H]1O2`, the activity change, negative = inhibition is 5.22% (inactive).
Same read-out and setting: to `CO[C@@H]1CN(C)C(=O)c2ccc(NC(C)=O)cc2OC[C@@H](C)N(Cc2ccccc2F)C[C@H]1C` belongs 0.725% (inactive); to `CO[C@H]1CN(C)C(=O)c2ccc(NC(=O)C3CC3)cc2OC[C@H](C)N(C(=O)c2ccccn2)C[C@H]1C`, -14.8% (inactive).
Still for that read-out and setting: to `Cc1noc(C)c1S(=O)(=O)Nc1ccc2c(c1)C(=O)N([C@H](C)CO)C[C@H](C)[C@@H](CN(C)Cc1ccc(C(F)(F)F)cc1)OCCCC[C@H](C)O2` belongs 27.4% (inactive); to `C[C@@H](NC(=O)C[C@@H]1C=C[C@@H](NC(=O)Cc2ccccn2)[C@@H](CO)O1)c1ccccc1`, -0.171% (inactive).
For `C[C@H]1CN([C@@H](C)CO)C(=O)Cc2cc(NC(=O)Cc3ccccc3)ccc2O[C@@H]1CN(C)Cc1ccc(C(F)(F)F)cc1`, the activity change, negative = inhibition is -3.24% (inactive).
Still for that read-out and setting: the value for `C[C@@H]1CN([C@@H](C)CO)C(=O)Cc2cc(NC(=O)Cc3ccccc3)ccc2O[C@@H]1CN(C)Cc1ccc(C(F)(F)F)cc1` was 5.83% (inactive).

These data come from PubChem BioAssay AID624376 (Broad Institute, 2012).
